Data: patent publication US20100087516A1, “ANTIBACTERIAL MACROLACTIN A THAT BACILLUS POLYFERMENTICUS KJS-2 PRODUCED IN” (priority 2007, published 2010)
Values after ≈ are worked out from the molar mass of the structure shown. Where two headings read alike, the source gives them in different places.

Experiments:
[1] = system: 13 MRSA strains, clinically isolated; assay: Minimal inhibitory concentration (MIC>90) in MH II medium; type: cell-based, methicillin-resistant Staphylococcus aureus
Experimental: (§1) The MIC (minimal inhibitory concentration) against VRE and MRSA was measured to test antibiotic activity of Macrolactin A produced by Bacillus polyfermenticus KJS-2, which is the strain of the present invention, against the two strains. The strains used for the experiment were 11 VRE strains and 13 MRSA strains, which were clinically isolated. Each strain used for the experiment was cultured in MH II medium at 200 rpm for 6 hours at 37° C., the absorbance of the medium measured at OD600nm using a UV detector, and then 1 ml aliquot of the medium was spread over MH II agar medium and incubated for 16 hours at 37° C. The number of colonies formed on the agar medium after 16 hours of incubation was counted. Each strain used for experiment was cultured in MH II medium at 200 rpm for 6 hours at 37° C., and the absorbance of the medium was measured at OD600nm using a UV detector. The number of cells were calculated based on the ratio of the number of colonies to the absorbance of the medium, and measured by the above process. Each culture medium was diluted to the final cell concentration of 0.25*10^7 cfu/ml and Macrolactin A was dissolved in the solvent DMSO, while ampicillin, teycoplanin, vancomycin and methillin were dissolved in water. To measure the MIC of Macrolactin A or of the four antibiotics, the mixture of the materials listed in Table 5 and Macrolactin A or the mixture of the materials listed in Table 6 and each of the four antibiotics, respectively in a 500 μl eppendorff tub, was incubated at 200 rpm for 16 hours at 37° C., and then absorbance was measured by a UV/Visible Light detector at 600 nm using a Fluorescence Multi-Detection Reader.

[2] = system: a variety of microorganisms and fungi; assay: Spectrum of antibiotic activity (general statement); type: cell-based
[3] = system: methicillin-resistant Staphylococcus aureu (MRSA); conditions: cited from earlier work
[4] = system: HIV; conditions: cited from earlier work
[5] = system: 11 VRE strains, clinically isolated; assay: Minimal inhibitory concentration (MIC>90) in MH II medium; type: cell-based, vancomycin-resistant enterococci
Experimental: as §1

[6] = system: Herpes simplex; conditions: cited from earlier work
[7] = system: VRE5; assay: Bioassay at a gradient of concentration on TSB agar medium; type: cell-based, vancomycin-resistant enterococci; conditions: 10 μl of solution in 50% acetone
[8] = system: biosynthesis of cholesterol; conditions: cited from earlier work
[9] = system: vancomycin-resistant enterococci (VRE); conditions: cited from earlier work
[10] = system: Bacillus subtilis 168; assay: Antibiotic activity test of HPLC fractions of the culture medium; type: cell-based
Experimental: (§2) In order to purify the antibiotic substance produced by strain Bacillus polyfermenticus KJS-2, the seed culture of the strain was diluted into 3 L of TSB medium (TSB agar: Tryptone 17 g, Soytone 3 g, Dextrose 2.5 g, NaCl 5 g, Dipotassium Phosphate 2.5 g, pH 6.8 to 72 to a final concentration of 4% and was cultured for 2.5 days (30° C., 200 rpm, 1 vvm, pH6.8). The culture medium was extracted with […] and analyzed by HPLC under the conditions using a solvent of Step 2 of Example 1, and each peak was fractionated as in FIG. 4. Each fraction was tested for antibiotic activity against Escherichia coli, Bacillus subtilis 168 and Vancomycin-resistant Enterococci. […] FIG. 5 below is the analysis of fraction 1 of FIG. 4 by LC/Mass under the same conditions of Step 2 of Example 1, and the purification was to a purity of 94.63%.

[11] = system: Vancomycin-resistant Enterococci; assay: as above; type: cell-based
Experimental: as §2

[12] = system: Escherichia coli; assay: as above; type: cell-based
Experimental: as §2

[13] = system: B16-F10 murine melanoma cancer cell; conditions: cited from earlier work
[14] = system: Burkholderia cepacia; conditions: cited from earlier work
[15] = system: Vancomycin-resistant enterococci; assay: Inhibitory effect on VRE in liquid medium; type: cell-based; conditions: for average absorbance (OD), Macrolactin A addition group: Average of 11 VRE strains
Experimental: For the experiment with VRE, the strains were inoculated into a liquid medium upto a concentration of 1,000,000 cfu/mL and cultured either with (for strains to be tested) or without (for controls) Macrolactin A. […] […] After 4 hours of culture, the average absorbance of the control group was 0.76, while that of the group cultured with Macrolactin A was 0.19, showing significant difference between the two groups.

## CC1CCC/C=C/C=C/C(O)CC(O)C/C=C\C=C\C(O)C/C=C/C=C\C(=O)O1 (centres unmarked) [Macrolactin A]
[1]; 13 MRSA strains
  activity relative to teycoplanin (average MIC>90): 5.3 times
[1]; Average of the 13 MRSA strains
  average MIC>90: 19.83 mg/L
[1]; MRSA1
  MIC>90: 31.25 mg/L (≈ 77.6 µM)
[1]; MRSA2
  MIC>90: 15.63 mg/L (≈ 38.8 µM)
[1]; MRSA3
  MIC>90: 15.63 mg/L (≈ 38.8 µM)
[1]; MRSA4
  MIC>90: 31.25 mg/L (≈ 77.6 µM)
[1]; MRSA5
  MIC>90: 31.25 mg/L (≈ 77.6 µM)
[1]; MRSA6
  MIC>90: 31.25 mg/L (≈ 77.6 µM)
[1]; MRSA7
  MIC>90: 15.63 mg/L (≈ 38.8 µM)
[1]; MRSA8
  MIC>90: 7.81 mg/L (≈ 19.4 µM)
[1]; MRSA8*
  MIC>90: 15.63 mg/L (≈ 38.8 µM)
[1]; MRSA9
  MIC>90: 15.63 mg/L (≈ 38.8 µM)
[1]; MRSA10
  MIC>90: 15.63 mg/L (≈ 38.8 µM)
[1]; MRSA11
  MIC>90: 15.63 mg/L (≈ 38.8 µM)
[1]; MRSA11*
  MIC>90: 15.63 mg/L (≈ 38.8 µM)
[2]
  spectrum of antibiotic activity: broad spectrum of antibiotic activity
[3]
  antibiotic activity against MRSA: antibiotic activity only against MRSA
[4]
  antiviral activity against HIV: antiviral activity
[5]; 11 VRE strains
  activity relative to teycoplanin (average MIC>90): 4 times
[5]; Average of the 11 VRE strains
  average MIC>90: 31.25 mg/L
[5]; VRE1
  MIC>90: 31.25 mg/L (≈ 77.6 µM)
[5]; VRE2
  MIC>90: 31.25 mg/L (≈ 77.6 µM)
[5]; VRE3
  MIC>90: 31.25 mg/L (≈ 77.6 µM)
[5]; VRE4
  MIC>90: 31.25 mg/L (≈ 77.6 µM)
[5]; VRE5
  MIC>90: 15.63 mg/L (≈ 38.8 µM)
[5]; VRE6
  MIC>90: 31.25 mg/L (≈ 77.6 µM)
[5]; VRE7
  MIC>90: 31.25 mg/L (≈ 77.6 µM)
[5]; VRE9
  MIC>90: 31.25 mg/L (≈ 77.6 µM)
[5]; VRE10
  MIC>90: 31.25 mg/L (≈ 77.6 µM)
[5]; VRE914
  MIC>90: 62.5 mg/L (≈ 155 µM)
[5]; VRE915
  MIC>90: 15.63 mg/L (≈ 38.8 µM)
[6]
  antiviral activity against Herpes simplex: antiviral activity
[7]
  concentration of solution that inhibits VRE5 on TSB agar medium: above 1.25 mg/ml
[8]
  inhibitory effect on the biosynthesis of cholesterol: inhibitory effect
[9]
  antibiotic activity against VRE: antibiotic activity only against MRSA
[10]
  antibiotic activity against Bacillus subtilis 168: excellent antibiotic activity
[10]; listed as fraction 1
  antibiotic activity against Bacillus subtilis 168: had antibiotic activity
[11]
  antibiotic activity against Vancomycin-resistant Enterococci: showed antibiotic activity
[12]
  antibiotic activity against Escherichia coli: excellent antibiotic activity
[12]; listed as fraction 1
  antibiotic activity against Escherichia coli: had antibiotic activity
[13]
  cytotoxicity on the B16-F10 murine melanoma cancer cell: shows cytotoxicity
[14]
  antibiotic activity against Burkholderia cepacia: antibiotic activity only against MRSA
[15]; culture 4 hours, 50 μg/mL
  average absorbance (OD), Macrolactin A addition group: 0.19 OD
[15]; culture 6 hours, 50 μg/mL
  average absorbance (OD), Macrolactin A addition group: 0.26 OD
[15]; VRE1, culture 4 hours, 50 μg/mL
  OD, Macrolactin A addition group: 0.216 OD
[15]; VRE1, culture 6 hours, 50 μg/mL
  OD, Macrolactin A addition group: 0.207 OD
[15]; VRE2, culture 4 hours, 50 μg/mL
  OD, Macrolactin A addition group: 0.279 OD
[15]; VRE2, culture 6 hours, 50 μg/mL
  OD, Macrolactin A addition group: 0.391 OD
[15]; VRE3, culture 4 hours, 50 μg/mL
  OD, Macrolactin A addition group: 0.240 OD
[15]; VRE3, culture 6 hours, 50 μg/mL
  OD, Macrolactin A addition group: 0.314 OD
[15]; VRE4, culture 4 hours, 50 μg/mL
  OD, Macrolactin A addition group: 0.166 OD
[15]; VRE4, culture 6 hours, 50 μg/mL
  OD, Macrolactin A addition group: 0.180 OD
[15]; VRE5, culture 4 hours, 50 μg/mL
  OD, Macrolactin A addition group: 0.176 OD
[15]; VRE5, culture 6 hours, 50 μg/mL
  OD, Macrolactin A addition group: 0.153 OD
[15]; VRE6, culture 4 hours, 50 μg/mL
  OD, Macrolactin A addition group: 0.171 OD
[15]; VRE6, culture 6 hours, 50 μg/mL
  OD, Macrolactin A addition group: 0.179 OD
[15]; VRE7, culture 4 hours, 50 μg/mL
  OD, Macrolactin A addition group: 0.173 OD
[15]; VRE7, culture 6 hours, 50 μg/mL
  OD, Macrolactin A addition group: 0.133 OD
[15]; VRE8, culture 4 hours, 50 μg/mL
  OD, Macrolactin A addition group: 0.228 OD
[15]; VRE8, culture 6 hours, 50 μg/mL
  OD, Macrolactin A addition group: 0.589 OD
[15]; VRE8 and VRE11, 50 μg/mL, lower sensitivity than the other strains
  growth of VRE8 and VRE11 in liquid medium: notable growth retardation
[15]; VRE11, culture 4 hours, 50 μg/mL
  OD, Macrolactin A addition group: 0.236 OD
[15]; VRE11, culture 6 hours, 50 μg/mL
  OD, Macrolactin A addition group: 0.507 OD
[15]; VRE14, culture 4 hours, 50 μg/mL
  OD, Macrolactin A addition group: 0.078 OD
[15]; VRE14, culture 6 hours, 50 μg/mL
  OD, Macrolactin A addition group: 0.050 OD
[15]; VRE15, culture 4 hours, 50 μg/mL
  OD, Macrolactin A addition group: 0.145 OD
[15]; VRE15, culture 6 hours, 50 μg/mL
  OD, Macrolactin A addition group: 0.131 OD
[15]; nine out of eleven strains tested, 50 μg/mL
  growth of VRE strains in liquid medium: remarkable growth inhibition
